The results in this text go back to ChEMBL document CHEMBL4043229, “gem-Dithioacetylated indole derivatives as novel antileishmanial agents” (Bioorg Med Chem Lett, 2017).

Data set [1] has as its system Leishmania donovani. The data set is described as follows: Anti-leishmanial activity against promastigote stage of Leishmania donovani MHOM/IN/Dd8 harboring luciferase gene at 12.5 ug/ml after 72 hrs by luminescence assay relative to control. As to conditions: for inhibition at 12.5 µg/mL: MHOM/IN/Dd8, 72 h. It is filed as functional.
In data set [2] the test system is Leishmania donovani. The data set is described as follows: Anti-leishmanial activity against intracellular amastigote stage of Leishmania donovani harboring luciferase gene infected in mouse J774A1 cells at 12.5 ug/ml after 72 hrs by luminescence assay relative to control. The format is functional. As to conditions: for inhibition at 12.5 µg/mL: J774.A1, 72 h.
Data set [3] is described as follows: Cytotoxicity against mouse J774A1 cells after 72 hrs by MTT assay. The format is cell-based, J774.A1. Background: Formazan colour is commonly taken as a measure of viable cells.

Each structure is given as a SMILES string. Values after ≈ are worked out from the molar mass of the structure shown. Active and inactive are the calls of the source. No cut-off for these calls is given here.

`CC(=O)SC(SC(C)=O)c1cn(CCCCCOc2ccc(C#N)cc2)c2ccccc12`: the inhibition at 12.5 µg/mL with Leishmania donovani [1] came out at 96%; with Leishmania donovani [2], 99.8%. In addition, in data set [3], the CC50 at 72 h is greater than 100 µg/mL.
Compound `CCCCn1cc(C(SC(C)=O)SC(C)=O)c2ccccc21` returned an inhibition at 12.5 µg/mL in the data set with Leishmania donovani [1] of 74%.
As for `N#Cc1ccc(OCCCCCn2cc(C=O)c3ccccc32)cc1`, the inhibition result with Leishmania donovani [1] and with Leishmania donovani [2] was “inactive” throughout.
Consider `CC(=O)SC(SC(C)=O)c1cn(CCCCOc2ccc(C#N)cc2)c2ccccc12`, for which the inhibition at 12.5 µg/mL in the data set with Leishmania donovani [1] came to 90.9%; in the data set on Leishmania donovani [2], 97.8%. This compound also yielded a CC50 at 72 h in data set [3] greater than 100 µg/mL.
`CC(=O)SC(SC(C)=O)c1cn(CCCCCCOc2ccc(C#N)cc2)c2ccccc12`: the inhibition at 12.5 µg/mL in the data set on Leishmania donovani [1] worked out at 91.6%; in the data set on Leishmania donovani [2], 40.2%. Further, the CC50 at 72 h in data set [3] is greater than 100 µg/mL.
As to `CC(=O)SC(SC(C)=O)c1cn(CCCCCN2CCN(c3ccccc3)CC2)c2ccccc12`, the inhibition at 12.5 µg/mL came to 60.1% in the data set with Leishmania donovani [1] and 86.8% in the data set with Leishmania donovani [2]. Further, half-maximal cytotoxicity in data set [3] (CC50 at 72 h) was put at 13.8 µg/mL (≈ 27.1 µM).
Regarding `CC(=O)SC(SC(C)=O)c1cn(C)c2ccccc12`, the inhibition at 12.5 µg/mL in the data set on Leishmania donovani [1] was determined as 31%.

As usually defined, the inhibition is the share of the control response that was lost under treatment. By CC50 is commonly meant the concentration that lowers cell viability or growth by half.
